Measurements taken from patent publication US20240108734A1, “METHODS FOR TREATING AND AMELIORATING CANCER” (The Regents of the University of California, priority 2021, published 2024).
Entries after “also recorded” stand apart in the source; their conditions may differ.

Columns and labels:
[1] = system: BC CML CD34+ cells engrafted in RAG2-/-yc-/- mice; assay: Humanized BC CML LSC mouse model; assay type: in vivo
Description: Human CD34^+ cells isolated from MF and BC CML samples (Table S2, illustrated as FIG. 11) were transplanted intravenously into adult NSG-SGM3 (expressing human IL-3, GM-CSF and SCF) mice following 300 cGy of irradiation or intrahepatically into neonatal RAG2^−/− yc^−/− mice, respectively^27,32.
Human CD34^+ cells isolated from MF and BC CML (Table S2) samples were transplanted intravenously into adult NSG-SGM3 (expressing human IL-3, GM-CSF and SCF) mice following
300 cGy of irradiation or intrahepatically into newborn RAG2^−/−[…]c^−/− mice^28,32,34. Post-transplantation (13 to 16 weeks), bone marrow and spleen were collected and analyzed by FACS^32. Mice were treated with vehicle, mismatch or imetelstat at varying doses. Also, MF CD34^+ cells were transduced with pCDH lentivirus control or ADAR1-OE lentivirus with a MOI of 100 for 48 hours, followed by intravenous transplantation into NSG-SGM3 mice to assess the impact of ADAR1 overexpression on MF engraftment.
FIG. 4A. A schema of humanized BC CML LSC and MF SPC mouse models. Human CD34^+ cells sorted from either BC CML or myelofibrosis patient blood or marrow were transplanted into neonatal Rag2^−/−[…]c^−/− mice or intravenously transplanted into adult NSG-S mice. Engrafted BC CML or MF mouse models were randomized into (1) vehicle control, (2) mismatch control, and (3) imetelstat treatment groups (n≥3/group). Bone marrow (BM) and spleen were collected when completing the dosing plan, and the single-cell suspension was analyzed by FACS.

telomere length = assay: FlowFish telomere length assay in LSC mouse models; assay type: in vivo, human; conditions: imetelstat compared with mismatch control; p<0.05, t test, ANOVA
Protocol: (§1) Telomere length was determined using the Telomere PNA Kit/FITC for Flow Cytometry (Dako, Cat #K5327) with a MACSQuant10 and analyzed with FlowJo software. The Relative Telomere Length (RTL) was calculated by dividing the mean fluorescence intensity (MFI) of the test sample G0/G1 population by the MFI of the normal peripheral blood reference G0/G1 population using the Cycletest™ Plus DNA Kit (BD, Cat #340242). Telomerase activity was determined using the TRAPeze Kit RT Telomerase Detection Kit (Millipore, Catalog No. S7710).
Samples were selected from engrafted mouse bone marrow or spleen with human CD45+ immunomagnetic beads (Miltenyi). Telomere length was determined by using the Telomere PNA Kit/FITC for Flow Cytometry (Dako, Cat #K5327). Samples were run on the MACSQuant10 and analyzed with FlowJo software. The Relative Telomere Length (RTL) was calculated. The 1301 cell line was utilized as control cells. The DNA index was determined with the (BD Cycletest™ Plus DNA Kit, Cat #340242). The DNA index was obtained by dividing the MFI of the test sample G0/G1 population by the WI of the normal reference G0/G1 population. Human peripheral blood mononuclear cells were used as “the normal reference G0/G1 population” for calculating the DNA index. Telomerase activity was determined by using TRAPeze Kit RT Telomerase Detection Kit (Millipore, Catalog No. S7710). […]

[2] = Tolerability (change in percent body weight) in xenograft models; assay type: in vivo; conditions: mice transplanted with CB, BC CML or MF progenitors
Description: FIG. 8A graphically illustrates data showing the change in percent body weight in mice transplanted with cord blood (CB) treated with vehicle (black), mismatch control (blue) or imetelstat (red);
FIG. 8B graphically illustrates data showing the change in percent body weight in mice transplanted with BC CML treated with vehicle (black), mismatch control (blue) or imetelstat (red);
FIG. 8C graphically illustrates data showing the change in percent body weight in mice transplanted with myelofibrosis (MF) progenitors treated with vehicle (black), mismatch control (blue) or imetelstat (red);

LSC = assay: Serial transplantation of BC CML LSC mouse model (LSC self-renewal); assay type: in vivo, mice
Protocol: FIG. 4H. Self-renewal capacity of human progenitor cells was evaluated in serially transplanted mouse models. FACS analysis of percentage of live human CD34^+CD38^+Lin^− progenitor cells following serial engraftment of cells derived from mice treated with vehicle (red), mismatch (blue) or imetelstat (green).
FIG. 4I. Kaplan-Meier survival curves of mice transplanted with CD34^+ cells selected from imetelstat treated mouse BM (green) compared with mismatch controls (blue).

telomerase = target: T1, telomerase (Homo sapiens, UniProt O14746); assay: TRAP telomerase activity assay in BC CML engrafted human CD45+ cells; assay type: in vivo; conditions: imetelstat compared with vehicle, p<0.0002
T1 construct: Cell lysates from 5×10^5 CD34^+ selected cells from BC CML engrafted mice or K562 cells were prepared; endogenous in cells; host or cells: human CD45+ / CD34+ cells selected from bone marrow or spleen of BC CML engrafted mice
T1 sequence (O14746 whole entry): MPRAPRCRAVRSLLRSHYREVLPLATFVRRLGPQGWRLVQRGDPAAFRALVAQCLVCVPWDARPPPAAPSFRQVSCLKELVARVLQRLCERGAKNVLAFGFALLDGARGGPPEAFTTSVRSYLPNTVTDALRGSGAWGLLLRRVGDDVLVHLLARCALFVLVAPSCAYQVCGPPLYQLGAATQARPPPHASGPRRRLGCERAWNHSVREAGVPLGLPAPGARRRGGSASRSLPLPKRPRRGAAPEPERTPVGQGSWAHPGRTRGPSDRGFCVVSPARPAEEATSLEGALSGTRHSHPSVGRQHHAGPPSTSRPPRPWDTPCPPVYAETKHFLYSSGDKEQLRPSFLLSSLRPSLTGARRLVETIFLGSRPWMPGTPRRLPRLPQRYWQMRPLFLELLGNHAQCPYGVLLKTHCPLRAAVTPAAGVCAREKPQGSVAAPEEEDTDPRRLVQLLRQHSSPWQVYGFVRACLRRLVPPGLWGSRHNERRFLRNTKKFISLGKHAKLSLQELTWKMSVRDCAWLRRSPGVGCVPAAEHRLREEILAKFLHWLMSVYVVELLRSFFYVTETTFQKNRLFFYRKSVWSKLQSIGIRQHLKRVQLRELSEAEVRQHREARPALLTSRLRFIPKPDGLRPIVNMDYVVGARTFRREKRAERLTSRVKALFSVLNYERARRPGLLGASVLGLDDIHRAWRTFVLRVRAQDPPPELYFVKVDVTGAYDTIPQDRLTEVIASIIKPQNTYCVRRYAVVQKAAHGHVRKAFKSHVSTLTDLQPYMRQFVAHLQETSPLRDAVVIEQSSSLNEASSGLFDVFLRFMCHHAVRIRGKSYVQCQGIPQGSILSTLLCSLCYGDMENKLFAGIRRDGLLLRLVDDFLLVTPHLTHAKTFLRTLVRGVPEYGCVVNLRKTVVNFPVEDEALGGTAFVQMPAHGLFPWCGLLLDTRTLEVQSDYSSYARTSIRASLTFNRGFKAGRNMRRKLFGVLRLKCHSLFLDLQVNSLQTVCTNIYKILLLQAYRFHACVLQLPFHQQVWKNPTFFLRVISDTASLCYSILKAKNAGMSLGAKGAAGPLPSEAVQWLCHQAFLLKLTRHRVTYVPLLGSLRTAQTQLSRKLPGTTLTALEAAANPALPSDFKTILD
T1 sequence (O60832 whole entry partner): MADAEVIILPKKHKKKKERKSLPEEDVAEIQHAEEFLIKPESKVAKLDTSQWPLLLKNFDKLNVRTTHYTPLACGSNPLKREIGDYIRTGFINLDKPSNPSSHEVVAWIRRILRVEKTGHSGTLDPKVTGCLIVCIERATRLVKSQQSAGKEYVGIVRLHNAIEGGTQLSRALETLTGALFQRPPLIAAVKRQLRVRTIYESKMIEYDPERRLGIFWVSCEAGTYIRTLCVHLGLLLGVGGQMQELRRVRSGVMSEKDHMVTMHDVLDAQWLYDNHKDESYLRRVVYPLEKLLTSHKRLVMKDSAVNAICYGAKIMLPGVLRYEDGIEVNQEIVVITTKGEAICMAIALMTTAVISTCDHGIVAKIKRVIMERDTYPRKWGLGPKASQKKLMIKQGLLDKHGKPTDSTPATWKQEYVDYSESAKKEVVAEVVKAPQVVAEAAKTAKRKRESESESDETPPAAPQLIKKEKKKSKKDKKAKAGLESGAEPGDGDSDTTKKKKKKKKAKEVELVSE
T1 sequence (Q9NX24 whole entry partner): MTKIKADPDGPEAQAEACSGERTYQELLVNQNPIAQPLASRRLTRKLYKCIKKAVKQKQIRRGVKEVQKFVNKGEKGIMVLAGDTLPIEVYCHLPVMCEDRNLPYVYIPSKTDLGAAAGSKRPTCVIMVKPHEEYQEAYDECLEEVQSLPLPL
T1 sequence (Q9NPE3 whole entry partner): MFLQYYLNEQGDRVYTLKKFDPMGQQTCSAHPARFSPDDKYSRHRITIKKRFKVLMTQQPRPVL
T1 sequence (Q9NY12 whole entry partner): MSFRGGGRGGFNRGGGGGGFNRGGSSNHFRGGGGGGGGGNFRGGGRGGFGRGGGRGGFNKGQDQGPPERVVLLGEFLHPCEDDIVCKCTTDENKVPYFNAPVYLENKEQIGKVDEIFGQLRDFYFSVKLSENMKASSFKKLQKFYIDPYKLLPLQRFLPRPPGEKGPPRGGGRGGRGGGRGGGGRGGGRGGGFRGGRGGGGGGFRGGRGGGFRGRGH
T1 sequence (Q9BUR4 whole entry partner): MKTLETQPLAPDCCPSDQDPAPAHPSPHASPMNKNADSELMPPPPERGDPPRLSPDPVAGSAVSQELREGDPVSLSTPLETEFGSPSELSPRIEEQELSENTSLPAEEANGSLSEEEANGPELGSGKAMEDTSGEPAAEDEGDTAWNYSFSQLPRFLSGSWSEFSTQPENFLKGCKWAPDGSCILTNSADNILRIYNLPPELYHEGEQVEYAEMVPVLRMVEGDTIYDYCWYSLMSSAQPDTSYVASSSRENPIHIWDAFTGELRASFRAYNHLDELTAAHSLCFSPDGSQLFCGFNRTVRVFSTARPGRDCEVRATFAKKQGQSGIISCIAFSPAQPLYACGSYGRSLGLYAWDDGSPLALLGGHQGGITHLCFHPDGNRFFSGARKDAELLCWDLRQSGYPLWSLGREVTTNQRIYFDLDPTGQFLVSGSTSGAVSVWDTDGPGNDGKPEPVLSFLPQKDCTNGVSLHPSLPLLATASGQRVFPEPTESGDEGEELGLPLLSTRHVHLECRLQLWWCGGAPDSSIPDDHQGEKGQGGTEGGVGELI
Protocol: as §1
Samples were selected from engrafted mouse bone marrow or spleen with human CD45+ immunomagnetic beads (Miltenyi). Telomere length was determined by using the Telomere PNA Kit/FITC for Flow Cytometry (Dako, Cat #K5327). Samples were run on the MACSQuant10 and analyzed with FlowJo software. The Relative Telomere Length (RTL) was calculated. The 1301 cell line was utilized as control cells. The DNA index was determined with the (BD Cycletest™ Plus DNA Kit, Cat #340242). […] Telomerase activity was determined by using TRAPeze Kit RT Telomerase Detection Kit (Millipore, Catalog No. S7710). […]
FIG. 5D. Telomerase activity in BC CML engrafted human CD45^+ cells, as measured by TRAP assay, in vehicle (red), mismatch control (blue) and imetelstat (green) treated BC CML mice.

[3] = system: normal cord blood CD34+ cells; assay: Normal HSC (cord blood CD34+) engrafted mouse model; assay type: in vivo, mice
Protocol: FIG. 9A-B graphically illustrate data showing that normal HSC mouse xenograft models were established with normal cord blood CD34^+ cells by intrahepatic injection into neonatal Rag2^−/− c^−/− mice; FACS analysis of mice treated with either vehicle (0.9% NS), mismatch control (30 mg/kg) or imetelstat (30 mg/kg) followed by quantification of human CD45^+ cells in BM (FIG. 9A) and in spleen (FIG. 9B);

ADAR1p150 = ADAR1p150 expression in human CD45+ cells from treated BC CML mice; assay type: in vivo; conditions: p=0.016
Description: FIG. 5G. Boxplot depicting Log 2 (cpm) expression of ADAR1p150 by RNA-seq of human CD45^+ cells isolated from vehicle (red), mismatch control (blue) and imetelstat (green) treated BC CML mouse cells. The p-values from Student's t-tests are shown (Student's t-test: vehicle: p=0.337, imetelstat tx: p=0.016).

[4] = 30 mg/kg imetelstat three times a week for 4 weeks, 5 different BC CML, vs vehicle controls

For imetelstat, the “human CD45+ cell proliferation / engraftment” value [1, 4] was “significant reduction; also recorded: reduced”, the “malignant progenitor proliferation / engraftment” value [1, 4] was “significant reduction; also recorded: reduced” and the splenomegaly ([1]; BC CML xenograft) was “decreases splenomegaly”. The “telomere length (FlowFish assay)” value (telomere length) was “normalization of telomere length”, the tolerability [2] was “well tolerated” and the “LSC engraftment after serial transplantation” value (LSC; compared with mismatch control treatment, p=0.04) was “significantly less”. For the same substance, the “survival rates of serially transplanted mice (Kaplan-Meier)” value (LSC; compared with mismatch controls, p=0.05) was “longer”, the “telomerase activity by TRAP assay” value (telomerase) was “reduction” and the “effect on normal hematopoietic stem cells” value ([3]; at doses reducing malignant RNA editing) was “spared normal hematopoietic stem cells”. For the same substance, the “normal cord blood engraftment (human CD45+ cells)” value ([3]; imetelstat 30 mg/kg vs vehicle and mismatch control, BM and spleen) was “no significant decrease; also recorded: does not reduce” and the ADAR1p150 expression (ADAR1p150) was “significantly reduced”.
